{"source": "patent US10370391B2", "about": "“Hydrogen peroxide-activable, anti-oxidant compounds and methods using same” (Beth Israel Deaconess Medical Center, Inc., priority 2014, dated 2019)", "key": {"[1]": {"test_system": "mouse embryonic fibroblast (NIH 3T3) cells", "experiment": "MTT cytotoxicity assay, NIH 3T3", "assay_type": "cell-based", "details": "concentrations as high as 5 mM, 24 hours of incubation", "protocol": "FIG. 8, comprising FIGS. 8A-8B, is a set of bar graphs illustrating biocompatibility profiles of BRAP assessed by MTT assay in human embryonic kidney (HEK 293) cells (FIG. 8A) and mouse embryonic fibroblast (NIH 3T3) cells (FIG. 8B).\n3-(4,5-Dimethylthiazil-2yl)-2,5-diphenyltetrazolium bromide (MTT) assay was performed to evaluate the cytotoxicity of BRAP. NIH 3T3 cells were cultured at a density of 1×10^5 cells/well in a 24 well plate, and RAW 264.7 cells and HEK cells were also cultured at a density of 2×10^5 cells/well in a 24 well plate. Cells were incubated for 24 hours to reach ˜80% confluency. Cells were treated with various amount of BRAP and incubated for 24 hours. Each well was given 100 μL of MTT solution and was incubated for 4 h. 200 μL of dimethyl sulfoxide (DMSO) were added to each well to dissolve the resulting formazan crystals. After 10 min incubation, the absorbance at 570 nm was measured using a microplate reader (Biotek Instruments, Winooski, Vt.). The cell viability was determined by comparing the absorbance of BRAP treated cells that of control cells."}, "TNF-α": {"test_system": "TNF-α", "experiment": "TNF-α level in LPS-stimulated macrophage cells", "assay_type": "cell-based, mouse", "protocol": "(§1) FIG. 4, comprising FIGS. 4A-4F, is a set of graphs, bar graphs and images illustrating anti-oxidant and anti-inflammatory effects of BRAP in vitro. […] The generation of ROS was monitored by flow cytometry as an indicator of DCF fluorescence. Fluorescence was analyzed in 10,000 cells with excitation at 480 nm and emission at 530 nm. FIG. 4C: Protective effect of BRAP on H2O2— stimulated adult rat cardiomyocytes. V=vehicle, *<0.05 vs. V+H2O2 (n=4). […] (n=4/group).\n(§2) The anti-inflammatory effects of BRAP on LPS-stimulated cells were investigated by measuring the level of inflammatory cytokines such as TNF-α (tumor necrosis factor-alpha) and iNOS (inducible nitric oxide synthases) (FIGS. 4E-4F). […] These observations indicate that BRAP, as well as BRAP-encapsulated PLGA microparticles, is able to scavenge overproduced H2O2 and serve as a H2O2-activable anti-oxidant. Further, the enhanced anti-oxidant activity of BRAP is derived from the combined effects of H2O2-scavenging boronic esters and HBA generation after H2O2-mediated boronate oxidation."}, "[2]": {"experiment": "Cumulative toxicity, daily administration for 7 days in mice", "assay_type": "in vivo, mouse", "details": "1.5 mg/kg/day intraperitoneal", "protocol": "FIG. 7, comprising FIGS. 7A-7C, is a set of images and bar graphs illustrating the safety profile of BRAP (1.5 mg/kg/day) after daily intraperitoneal administration for 7 days. FIGS. 7A-7B: Creatinine (FIG. 7A) and ALT (FIG. 7B) levels 7 days after daily BRAP administration. FIG. 7C: Representative H/E stained tissue sections of different organs 7 days after daily BRAP administration (n=4/group).\nTo determine the potential cumulative toxic effects of BRAP, BRAP (1.5 mg/kg/day) was administered daily for 7 days in mice."}, "iNOS": {"test_system": "iNOS", "experiment": "iNOS level in LPS-stimulated macrophage cells", "assay_type": "cell-based, mouse", "protocol": "as §1, §2"}}, "data": [{"smiles": "CC1(CO)COB(c2ccc(CO)cc2)OC1", "note": "[BRAP, (4-(5-(hydroxymethyl)-5-methyl-1,3,2-dioxaborinan-2-yl)phenyl)methanol]", "values": [{"measurement": "cytotoxicity (MTT)", "setting": "[1]", "result": "no significant cytotoxicity"}, {"measurement": "TNF-α level", "setting": "TNF-α", "result": "significantly suppressing"}, {"measurement": "histology of different organs (H/E)", "setting": "[2]", "result": "no significant histological evidence of accumulated toxicity"}, {"measurement": "serum test for hepatic function (ALT)", "setting": "[2]", "result": "no significant abnormalities"}, {"measurement": "serum test for renal function (creatinine)", "setting": "[2]", "result": "no significant abnormalities"}, {"measurement": "iNOS level", "setting": "iNOS", "result": "significantly suppressing"}]}]}
